Experimental data from PubChem BioAssay (NCI).
Values joined by “and” are separate entries in the source; they are usually repeats but may differ in a detail not shown here. Identical values can stand only once.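 Exposure lasted 48 hours, with cells grown in 96-well plates and compounds tested at five concentrations. GI50 = concentration required for 50% inhibition of growth. At the TGI there is no net growth.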

What follows are compounds tested on COLO 205 colon (assay: DTP human tumour cell line panel, 48 h).

| SMILES | GI50 | TGI |
| --- | --- | --- |
| C=C1C(=O)O[C@H]2[C@H]1CC/C(COC(=O)c1ccc3ccccc3c1)=C\CC[C@@]1(C)O[C@@H]21 | 1.36 µM | 2.94 µM |
| Nc1nc(Cl)c2ncn(Cc3ccc(C45CC6CC(CC(C6)C4)C5)c(O)c3)c2n1 | 5.43 µM | 27.8 µM |
| CC[CH2][Sn]([CH2]CC)([O]C(=O)c1cccnc1SC)[O][Sn]([CH2]CC)([CH2]CC)[O]C(=O)c1cccnc1SC | 0.396 µM | 1.08 µM |
| CC(C)c1nc(CN(C)C(=O)N[C@H](C(=O)N[C@@H](Cc2ccccc2)C[C@H](O)[C@H](Cc2ccccc2)NC(=O)OCc2cncs2)C(C)C)cs1 | 17.6 µM | 38.2 µM |
| CC[C@@]1(O)C(=O)OCc2c1cc1n(c2=O)Cc2c-1nc1cc3c(cc1c2CCl)OCO3 | 1.15 µM | 3.4 µM |
| N#Cc1ccc(O)c(C2=NCC(c3cccc(Oc4ccccc4)c3)O2)c1 (centres undefined) | 3.13 µM | 15.6 µM |
| O=C1Nc2c(C(F)(F)F)cccc2[C@]1(c1ccc(O)cc1)c1ccc(OC(F)(F)F)cc1 | 3.26 µM | 25.4 µM |
| CC(=O)OC[C@]1(C)C=C2C(=O)[C@](C)(O)C3(CC3)C(C)=C2[C@H]1O | 0.11 µM | 0.308 µM |
| Oc1ccc(NCc2nc3ccccc3[nH]2)cc1 | 69.1 µM | > 100 µM |
| C[C@]12CC[C@H]3[C@@H](CC=C4C[C@@H](O)CC[C@@]43C)[C@@H]1CC[C@@H]2N(CCO)CCO | – | > 100 µM |
| O=C1c2cc(Cl)ccc2S(=O)(=O)c2c(NCCCNCCO)nc3ccccc3c21 | 1.01 µM | 2.35 µM |
| CC(C)(C)OC(=O)N1CCc2c(sc3ncnc(N/N=C/c4cccc5ccccc45)c23)C1 | 2.79 µM | 40.8 µM |
| CC[C@@H]1CN(C)[C@H]2Cc3c([nH]c4ccccc34)C(=O)C[C@H]1C2C(=O)OC (some centres undefined) | – | > 100 µM |
| CCN(CC)c1ccc(/C=C/c2ccc3cc(C)ccc3[n+]2CC)cc1 | 0.124 µM | 0.516 µM |
| COc1ccc(/C=C/c2nccc3ccccc23)cc1OC | – | > 10 µM |
| COC1/C=C\C=C(/C)C(=O)NC2=CC(=O)C(=O)C(=C2O)CC(C)CC(OC)C(O)C(C)/C=C(\C)C1OC(N)=O (centres undefined) | – | 13.3 µM |
| O=c1[nH]ncc(Br)c1Br | 1.91 µM | 3.32 µM |

The compounds below were run on CCRF-CEM leukemia (assay: DTP human tumour cell line panel, 48 h).

| SMILES | GI50 | TGI |
| --- | --- | --- |
| CC[C@]1(O)C[C@@H]2CN(CCc3c([nH]c4ccccc34)[C@@](C(=O)OC)(c3cc4c(cc3OC)N(C)[C@H]3[C@@](O)(C(=O)OC)[C@H](OC(C)=O)[C@]5(CC)C=CCN6CC[C@]43[C@@H]65)C2)C1 | < 0.01 µM | > 49.3 µM |
| N#CSc1c[nH]c2cccc(/C=C/C(=O)/C=C(/C=C/c3cccc4[nH]cc(SC#N)c34)OB(F)F)c12 | 0.315 µM | 17.6 µM |
| COc1cc([N+](=O)[O-])cc2c3c(n(C)c12)[C@@]1(C)CCC2c4ccc(OCc5ccccc5)cc4CCC2C1C3 (some centres undefined) | > 100 µM | > 100 µM |
| C=CC(=O)N1CC2(CCN(c3nc(OC4CCN(CCCOC)CC4)nc4c(OCC(F)(F)F)c(-c5c(C)ccc6[nH]ncc56)c(C5CC5)cc34)CC2)C1 | 2.46 µM | 8.09 µM |
| CC[C@@H]1C(=O)N(C)c2cnc(Nc3ccc(C(=O)NC4CCN(C)CC4)cc3OC)nc2N1C1CCCC1 | 0.00236 µM and < 0.01 µM | 2.9 µM and 1.26 µM |
| C=C1C(=O)O[C@H]2[C@H]1CC/C(COC(=O)c1ccc3ccccc3c1)=C\CC[C@@]1(C)O[C@@H]21 | 0.28 µM | 1.38 µM |
| Nc1nc(Cl)c2ncn(Cc3ccc(C45CC6CC(CC(C6)C4)C5)c(O)c3)c2n1 | 0.809 µM | 10.6 µM |
| CC[CH2][Sn]([CH2]CC)([O]C(=O)c1cccnc1SC)[O][Sn]([CH2]CC)([CH2]CC)[O]C(=O)c1cccnc1SC | 0.0691 µM | 0.756 µM |
| CC(C)c1nc(CN(C)C(=O)N[C@H](C(=O)N[C@@H](Cc2ccccc2)C[C@H](O)[C@H](Cc2ccccc2)NC(=O)OCc2cncs2)C(C)C)cs1 | 19.8 µM | 50.5 µM |
| CC[C@@]1(O)C(=O)OCc2c1cc1n(c2=O)Cc2c-1nc1cc3c(cc1c2CCl)OCO3 | < 0.01 µM | – |
